Our source for the IC50 values is patent publication US11590139B2, “Substituted aminopurine compounds, compositions thereof, and methods of treatment therewith” (Signal Pharmaceuticals, LLC, priority 2014, dated 2023).

Structures are written as SMILES.

One test relates to Lox-IMVI melanoma cell line. Briefly: Lox-IMVI anti-proliferative assay (growth inhibition, Cell Titer-Glo). It is filed as cell-based, human. The following applies: Homo sapiens; IC50 activity level in the cell-based Lox-IMVI anti-proliferative assay; read-out: Activity. The procedure, abridged:
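Viability read by ATP luminescence (Cell Titer-Glo) at t0 and after 72 h at 37 °C, 5% CO2, with normalisation to DMSO-treated cells. Compound tested at 0.5 nM–10 μM in 3-fold, 10-point series (0.2% DMSO final) on Lox-IMVI in RPMI+10% FBS; IC50 by 4-parameter sigmoidal fit.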
Regarding `CC(=O)N1CCC(Nc2ncc3nc(Nc4c(Cl)cc(Cl)cc4Cl)n([C@H]4CC[C@@H](C(N)=O)CC4)c3n2)CC1` [Example 197, (1s,4s)-4-(2-(1-acetylpiperidin-4-ylamino)-8-(2,4,6-trichlorophenylamino)-9H-purin-9-yl)cyclohexanecarboxamide], the IC50 is > 1 µM.
Turning to `NC(=O)[C@H]1CC[C@@H](n2c(Nc3ccc(Cl)c(F)c3F)nc3cnc(NC4CCOCC4)nc32)CC1` [Example 72, (1s,4s)-4-(8-(4-chloro-2,3-difluorophenylamino)-2-(tetrahydro-2H-pyran-4-ylamino)-9H-purin-9-yl)cyclohexanecarboxamide], the IC50 is 0.25 to 0.5 µM.
The same measure, in the same setting: the figure for `NC(=O)[C@H]1CC[C@@H](n2c(Nc3c(F)ccc(F)c3F)nc3cnc(N[C@@H]4CC[C@@H](O)C4)nc32)CC1` [Example 218, (1S,4s)-4-(2-((1R,3R)-3-hydroxycyclopentylamino)-8-(2,3,6-trifluorophenylamino)-9H-purin-9-yl)cyclohexanecarboxamide] is > 1 µM; for `CC(C)(C)OC(=O)N1CCC[C@@H](Nc2ncc3nc(Nc4c(Cl)cccc4Cl)n([C@H]4CC[C@@H](C(N)=O)CC4)c3n2)C1` [Example 160, (R)-tert-butyl 3-(9-((1s,4S)-4-carbamoylcyclohexyl)-8-(2,6-dichlorophenylamino)-9H-purin-2-ylamino)piperidine-1-carboxylate] it is > 1 µM.
Regarding `NC(=O)[C@H]1CC[C@@H](n2c(Nc3ccc(Cl)c(F)c3F)nc3cnc(NC4CC(F)(F)C4)nc32)CC1` [Example 232, (1s,4s)-4-(8-(4-chloro-2,3-difluorophenylamino)-2-(3,3-difluorocyclobutylamino)-9H-purin-9-yl)cyclohexanecarboxamide], the IC50 is > 1 µM.
Still for that read-out and setting: the figure for `NC(=O)[C@H]1CC[C@@H](n2c(Nc3c(F)cccc3F)nc3cnc(N[C@H]4CCC[C@@H]4O)nc32)CC1` [Example 267, (1R,4s)-4-(8-(2,6-difluorophenylamino)-2-((1S,2S)-2-hydroxycyclopentylamino)-9H-purin-9-yl)cyclohexanecarboxamide] is > 1 µM; for `NC(=O)[C@H]1CC[C@@H](n2c(Nc3c(F)cc(F)cc3Cl)nc3cnc(N[C@@H]4CCOC4)nc32)CC1` [Example 199, (1S,4s)-4-(8-(2-chloro-4,6-difluorophenylamino)-2-((R)-tetrahydrofuran-3-ylamino)-9H-purin-9-yl)cyclohexanecarboxamide] it is 0.5 to 1 µM.
Consider `NC(=O)[C@H]1CC[C@@H](n2c(Nc3c(F)cc(F)cc3Cl)nc3cnc(NC4CCC4)nc32)CC1` [Example 117, (1s,4s)-4-(8-(2-chloro-4,6-difluorophenylamino)-2-(cyclobutylamino)-9H-purin-9-yl)cyclohexanecarboxamide], for which the IC50 was 0.5 to 1 µM.
As to `Cc1cc(Cl)c(Nc2nc3cnc(NC4CCOCC4)nc3n2[C@H]2CC[C@@H](C(N)=O)CC2)c(Cl)c1` [Example 116, (1s,4s)-4-(8-(2,6-dichloro-4-methylphenylamino)-2-(tetrahydro-2H-pyran-4-ylamino)-9H-purin-9-yl)cyclohexanecarboxamide], the IC50 is > 1 µM.

Staying with this test, now noted: Homo sapiens; Lox-IMVI anti-proliferative assay, IC50 activity level; read-out: Activity.
For `C[C@]1(C(N)=O)CC[C@@H](n2c(Nc3c(Cl)cc(C#N)cc3Cl)nc3cnc(NC4CCC(F)(F)CC4)nc32)CC1` [Example 534, (1s,4s)-4-(8-(2,6-dichloro-4-cyanophenylamino)-2-(4,4-difluorocyclohexylamino)-9H-purin-9-yl)-1-methylcyclohexanecarboxamide], the IC50 is < 0.25 µM.
Same read-out and setting: the figure for `NC(=O)[C@H]1CC[C@@H](n2c(Nc3c(Cl)cc(OC(F)(F)F)cc3Cl)nc3cnc(N[C@@H]4CCC[C@H](O)C4)nc32)CC1` [Example 595, (1S,4s)-4-(8-(2,6-dichloro-4-(trifluoromethoxy)phenylamino)-2-((1R,3S)-3-hydroxycyclohexylamino)-9H-purin-9-yl)cyclohexanecarboxamide] is > 1 µM.
Turning to `NC(=O)[C@H]1CC[C@@H](n2c(Nc3c(Cl)cccc3Cl)nc3cnc(N[C@@H]4CCCC[C@H](O)C4)nc32)CC1` [Example 435, (1S,4s)-4-(8-(2,6-dichlorophenylamino)-2-((1R,3S)-3-hydroxycycloheptylamino)-9H-purin-9-yl)cyclohexanecarboxamide], the IC50 is > 1 µM.
The same measure, in the same setting: the figure for `C[C@]1(C(N)=O)CC[C@H](n2c(Nc3c(F)cc(Cl)cc3F)nc3cnc(NC4CCCC4)nc32)CC1` [Example 489, (1r,4r)-4-(8-(4-chloro-2,6-difluorophenylamino)-2-(cyclopentylamino)-9H-purin-9-yl)-1-methylcyclohexanecarboxamide] is > 1 µM; for `C[C@@H]1COCC[C@H]1Nc1ncc2nc(Nc3c(F)cc(Cl)cc3Cl)n([C@H]3CC[C@@H](C(N)=O)CC3)c2n1` [Example 503, (1S,4s)-4-(8-(2,4-dichloro-6-fluorophenylamino)-2-((3S,4R)-3-methyltetrahydro-2H-pyran-4-ylamino)-9H-purin-9-yl)cyclohexanecarboxamide] it is < 0.25 µM; for `NC(=O)[C@H]1CC[C@@H](n2c(Nc3c(F)cc(F)cc3F)nc3cnc(NC4CCCOCC4)nc32)CC1` (stereo partly drawn) [Example 536, (1s,4s)-4-(2-(oxepan-4-ylamino)-8-(2,4,6-trifluorophenylamino)-9H-purin-9-yl)cyclohexanecarboxamide] it is 0.5 to 1 µM.
The same measure, in the same setting: the figure for `NC(=O)[C@H]1CC[C@@H](n2c(Nc3c(F)cc(Cl)cc3F)nc3cnc(N[C@H]4CCCC[C@H]4O)nc32)CC1` [Example 515, (1R,4s)-4-(8-(4-chloro-2,6-difluorophenylamino)-2-((1S,2R)-2-hydroxycyclohexylamino)-9H-purin-9-yl)cyclohexanecarboxamide] is > 1 µM; for `N#Cc1cc(Cl)c(Nc2nc3cnc(NC4CC5(COC5)C4)nc3n2[C@H]2CC[C@@H](C(N)=O)CC2)c(Cl)c1` [Example 571, (1s,4s)-4-(2-(2-oxaspiro[3.3]heptan-6-ylamino)-8-(2,6-dichloro-4-cyanophenylamino)-9H-purin-9-yl)cyclohexanecarboxamide] it is 0.25 to 0.5 µM.
With `C[C@H]1COCC[C@@H]1Nc1ncc2nc(Nc3c(F)cc(F)cc3F)n([C@H]3CC[C@@H](C(N)=O)CC3)c2n1` [Example 510, (1R,4s)-4-(2-((3R,4S)-3-methyltetrahydro-2H-pyran-4-ylamino)-8-(2,4,6-trifluorophenylamino)-9H-purin-9-yl)cyclohexanecarboxamide], the IC50 is > 1 µM.

Staying with this test, now noted: Homo sapiens; Lox-IMVI melanoma cell line, anti-proliferative assay; read-out: Activity (IC50 activity level).
On to `CS(=O)(=O)N1CCC[C@@H](Nc2ncc3nc(Nc4c(Cl)cc(C#N)cc4Cl)n([C@H]4CC[C@@H](C(N)=O)CC4)c3n2)C1` [Example 702, (1S,4s)-4-(8-(2,6-dichloro-4-cyanophenylamino)-2-((R)-1-(methylsulfonyl)piperidin-3-ylamino)-9H-purin-9-yl)cyclohexanecarboxamide], for which the IC50 was > 1 µM.
Same read-out and setting: the figure for `NC(=O)[C@H]1CC[C@@H](n2c(Nc3c(Cl)cc(F)cc3Cl)nc3cnc(NC[C@@H]4CCCC[C@@H]4O)nc32)CC1` [Example 656, (1R,4s)-4-(8-(2,6-dichloro-4-fluorophenylamino)-2-(((1S,2S)-2-hydroxycyclohexyl)methylamino)-9H-purin-9-yl)cyclohexanecarboxamide] is > 1 µM; for `C[C@]1(C(N)=O)CC[C@@H](n2c(Nc3c(Cl)cc(C#N)cc3Cl)nc3cnc(N[C@H]4CC[C@H](O)C4)nc32)CC1` [Example 650, (1R,4s)-4-(8-(2,6-dichloro-4-cyanophenylamino)-2-((1S,3S)-3-hydroxycyclopentylamino)-9H-purin-9-yl)-1-methylcyclohexanecarboxamide] it is 0.25 to 0.5 µM.
On the same count and under the same terms, the figure for `CC(=O)N1CCC[C@@H](Nc2ncc3nc(Nc4c(Cl)cc(Cl)cc4Cl)n([C@H]4CC[C@@H](C(N)=O)CC4)c3n2)C1` [Example 710, (1S,4s)-4-(2-((R)-1-acetylpiperidin-3-ylamino)-8-(2,4,6-trichlorophenylamino)-9H-purin-9-yl)cyclohexanecarboxamide] is > 1 µM; for `N#Cc1ccc(Nc2nc3cnc(NC4CCOCC4)nc3n2[C@H]2CC[C@@H](C(N)=O)CC2)c(Cl)c1Cl` [Example 696, (1s,4s)-4-(8-(2,3-dichloro-4-cyanophenylamino)-2-(tetrahydro-2H-pyran-4-ylamino)-9H-purin-9-yl)cyclohexanecarboxamide] it is 0.5 to 1 µM.
Still for that read-out and setting: the figure for `NC(=O)[C@H]1CC[C@@H](n2c(Nc3c(Cl)cc(Br)cc3Cl)nc3cnc(NC4CCC(F)(F)CC4)nc32)CC1` [Example 691, (1s,4s)-4-(8-(4-bromo-2,6-dichlorophenylamino)-2-(4,4-difluorocyclohexylamino)-9H-purin-9-yl)cyclohexanecarboxamide] is 0.5 to 1 µM.
Turning to `C[C@]1(C(N)=O)CC[C@@H](n2c(Nc3c(Cl)cc(F)cc3Cl)nc3cnc(N[C@H]4CCC[C@@H](O)C4)nc32)CC1` [Example 631, (1R,4s)-4-(8-(2,6-dichloro-4-fluorophenylamino)-2-((1S,3R)-3-hydroxycyclohexylamino)-9H-purin-9-yl)-1-methylcyclohexanecarboxamide], the IC50 fell in the range of 0.5 to 1 µM.
For the molecule `C[C@@H]1COCC[C@@H]1Nc1ncc2nc(Nc3c(Cl)cc(C#N)cc3Cl)n([C@H]3CC[C@@](C)(C(N)=O)CC3)c2n1` [Example 763, (1S,4s)-4-(8-(2,6-dichloro-4-cyanophenylamino)-2-((3S,4R)-3-methyltetrahydro-2H-pyran-4-ylamino)-9H-purin-9-yl)-1-methylcyclohexanecarboxamide], the IC50 was < 0.25 µM.
Regarding `NC(=O)[C@H]1CC[C@@H](n2c(Nc3c(F)cc(Cl)cc3F)nc3cnc(NC[C@@H]4CCCC[C@H]4O)nc32)CC1` [Example 663, (1R,4s)-4-(8-(4-chloro-2,6-difluorophenylamino)-2-(((1S,2R)-2-hydroxycyclohexyl)methylamino)-9H-purin-9-yl)cyclohexanecarboxamide], the IC50 is > 1 µM.
